This passage reports MIC and ED50 results from ChEMBL document CHEMBL1146778, “The synthesis and antimicrobial evaluation of a new series of isoxazolinyl oxazolidinones” (2004).

In brackets after ≈: the same amount, converted by molar mass.

Holding throughout (assay type): functional
Experiment [1] relates to Staphylococcus aureus. The experiment can be described thus: Minimum inhibitory concentration (MIC) against Staphylococcus aureus OC 4172 in the absence of mouse serum.
Experiment [2] has as its system Escherichia coli. The experiment can be described thus: Minimum inhibitory concentration (MIC) against Escherichia coli OC 2530 (HS).
Experiment [3] deals with Staphylococcus aureus. Description: Minimum inhibitory concentration (MIC) against Staphylococcus aureus OC 4172 in the presence of 50% mouse serum.
For experiment [4], the system named is Escherichia coli. The experiment can be described thus: Minimum inhibitory concentration (MIC) against Escherichia coli OC 2605.
Another experiment concerns Enterococcus faecalis. Description: Minimum inhibitory concentration (MIC) against Enterococcus faecalis ATCC 29212.
The next experiment concerns Enterococcus faecium. Description: Minimum inhibitory concentration (MIC) against Enterococcus faecium OC 3312 (VRE).
In experiment [5] the test system is Staphylococcus aureus. Description: Minimum inhibitory concentration (MIC) against methicillin-resistant Staphylococcus aureus (MRSA) OC2878.
Experiment [6] relates to Staphylococcus aureus. Description: Tested for the dose to protect the mice from infection with Staphylococcus aureus OC 4172, by subcutaneous administration. The note with it: sc.
Another experiment concerns Mus musculus. The experiment can be described thus: Tested for the dose to protect the mice from infection with Staphylococcus aureus OC 4172, by oral administration.

For orientation: MIC means the lowest concentration that inhibits growth of the organism. With `CC(=O)NC[C@H]1CN(c2ccc(C3=NOC(Cn4ccnc4)C3)c(F)c2)C(=O)O1` (stereo partly specified), the MIC in the experiment with Staphylococcus aureus [1], in the experiment with Escherichia coli [2], in the experiment with Staphylococcus aureus [3], against Escherichia coli [4], with Enterococcus faecalis and with Enterococcus faecium was over 32 µg/mL each time.
In the case of `CC(=O)NC[C@H]1CN(c2ccc(C3=NOC(CN4CCOCC4)C3)c(F)c2)C(=O)O1` (stereo partly specified), the minimal inhibitory concentration (MIC) with Staphylococcus aureus [1] turned out to be 16 µg/mL (≈ 38.1 µM); against Escherichia coli [2], 32 µg/mL (≈ 76.1 µM); in the experiment on Staphylococcus aureus [3], 16 µg/mL; against Escherichia coli [4], 64 µg/mL (≈ 152 µM); against Enterococcus faecalis it was 16 µg/mL (≈ 38.1 µM); against Staphylococcus aureus [5] it was 8 µg/mL (≈ 19 µM). Moreover, in the experiment on Enterococcus faecium, it took 32 µg/mL (≈ 76.1 µM) to inhibit growth (MIC).
Take `CC(=O)NC[C@H]1CN(c2ccc(C3=NOC(CN(C)C)C3)c(F)c2)C(=O)O1` (stereo partly specified): the minimal inhibitory concentration (MIC) against Staphylococcus aureus [1] turned out to be 8 µg/mL (≈ 21.1 µM); in the experiment on Escherichia coli [2], 64 µg/mL (≈ 169 µM); in the experiment with Staphylococcus aureus [3], 2 µg/mL; against Escherichia coli [4], 128 µg/mL (≈ 338 µM); in the experiment on Enterococcus faecalis it was 8 µg/mL (≈ 21.1 µM); against Staphylococcus aureus [5], 8 µg/mL (≈ 21.1 µM). Besides, inhibition of growth with Enterococcus faecium (MIC) required 8 µg/mL (≈ 21.1 µM).
As to `CC(=O)NC[C@H]1CN(c2ccc(C3=NOC(c4ccncc4)C3)c(F)c2)C(=O)O1` (stereo partly specified), the MIC was 4 µg/mL (≈ 10 µM) against Staphylococcus aureus [1]; 32 µg/mL (≈ 80.3 µM) against Escherichia coli [2]; 4 µg/mL with Staphylococcus aureus [3]; over 64 µg/mL against Escherichia coli [4]; 4 µg/mL (≈ 10 µM) in the experiment on Enterococcus faecalis; 1 µg/mL (≈ 2.51 µM) with Staphylococcus aureus [5]. This molecule also returned an MIC with Enterococcus faecium of 4 µg/mL (≈ 10 µM).
In the case of `CC(=O)NC[C@H]1CN(c2ccc(C3=NOC(CN4CCN(C(C)=O)CC4)C3)c(F)c2)C(=O)O1` (stereo partly specified), the MIC against Staphylococcus aureus [1] is 8 µg/mL (≈ 17.3 µM); with Escherichia coli [2] it was 16 µg/mL (≈ 34.7 µM); in the experiment with Staphylococcus aureus [3] it was 8 µg/mL; against Escherichia coli [4], over 32 µg/mL; against Enterococcus faecalis, 8 µg/mL (≈ 17.3 µM); with Staphylococcus aureus [5], 8 µg/mL (≈ 17.3 µM). In addition, it took 16 µg/mL (≈ 34.7 µM) to inhibit growth with Enterococcus faecium (MIC).
A word on the ED50: it is the dose that gives a 50% effect, or the effect in half of the subjects. The low end stands for an effect at a small dose, the high end for a need for a large dose. As for `CC(=O)NC[C@H]1CN(c2ccc(-c3cc(-c4ccccn4)on3)c(F)c2)C(=O)O1`, the MIC is 4 µg/mL (≈ 10.1 µM) with Staphylococcus aureus [1]; 64 µg/mL (≈ 161 µM) in the experiment with Escherichia coli [2]; 8 µg/mL in the experiment on Staphylococcus aureus [3]; over 128 µg/mL with Escherichia coli [4]; 4 µg/mL (≈ 10.1 µM) with Enterococcus faecalis; 2 µg/mL (≈ 5.05 µM) in the experiment with Staphylococcus aureus [5]. For the same molecule, the MIC with Enterococcus faecium is 4 µg/mL (≈ 10.1 µM). In the experiment on Staphylococcus aureus [6], this molecule returned an ED50 of over 40 mg/kg/day.
In the case of `COCCNC(=O)C1CC(c2ccc(N3C[C@H](CNC(C)=O)OC3=O)cc2F)=NO1` (stereo partly specified), the minimal inhibitory concentration (MIC) is 8 µg/mL (≈ 18.9 µM) against Staphylococcus aureus [1]; 64 µg/mL (≈ 152 µM) with Escherichia coli [2]; 8 µg/mL in the experiment on Staphylococcus aureus [3]; over 64 µg/mL with Escherichia coli [4]; 16 µg/mL (≈ 37.9 µM) against Enterococcus faecalis; 16 µg/mL (≈ 37.9 µM) in the experiment on Staphylococcus aureus [5]. The molecule further displayed an MIC in the experiment with Enterococcus faecium of 16 µg/mL (≈ 37.9 µM).
For `CC(=O)NCC1CC(c2ccc(N3C[C@H](CNC(C)=O)OC3=O)cc2F)=NO1` (stereo partly specified), the MIC against Staphylococcus aureus [1] is 8 µg/mL (≈ 20.4 µM); in the experiment on Escherichia coli [2] it was 64 µg/mL (≈ 163 µM); in the experiment with Staphylococcus aureus [3], 8 µg/mL; in the experiment with Escherichia coli [4], over 64 µg/mL; against Enterococcus faecalis it was 16 µg/mL (≈ 40.8 µM); against Staphylococcus aureus [5] it was 16 µg/mL (≈ 40.8 µM). The molecule also had an MIC against Enterococcus faecium of 16 µg/mL (≈ 40.8 µM).
As to `CNC(=O)C1CC(c2ccc(N3C[C@H](CNC(C)=O)OC3=O)cc2F)=NO1` (stereo partly specified), the MIC is 4 µg/mL (≈ 10.6 µM) against Staphylococcus aureus [1]; 32 µg/mL (≈ 84.6 µM) in the experiment on Escherichia coli [2]; 4 µg/mL in the experiment with Staphylococcus aureus [3]; over 128 µg/mL against Escherichia coli [4]; 4 µg/mL (≈ 10.6 µM) with Enterococcus faecalis; 4 µg/mL (≈ 10.6 µM) in the experiment on Staphylococcus aureus [5]. In the experiment with Enterococcus faecium, the MIC stood at 4 µg/mL (≈ 10.6 µM).
On to `CC(=O)NC[C@H]1CN(c2ccc(C3=NOC(C(=O)N4CCOCC4)C3)c(F)c2)C(=O)O1` (stereo partly specified), for which the MIC in the experiment with Staphylococcus aureus [1] is 8 µg/mL (≈ 18.4 µM); in the experiment with Escherichia coli [2] it was 32 µg/mL (≈ 73.7 µM); with Staphylococcus aureus [3], 8 µg/mL; in the experiment on Escherichia coli [4], over 128 µg/mL; with Enterococcus faecalis, 8 µg/mL (≈ 18.4 µM); against Staphylococcus aureus [5], 8 µg/mL (≈ 18.4 µM). In the experiment on Enterococcus faecium, the MIC worked out at 8 µg/mL (≈ 18.4 µM).
As to `CC(=O)NC[C@H]1CN(c2ccc(C3=NOC(C#N)C3)c(F)c2)C(=O)O1` (stereo partly specified), the MIC in the experiment on Staphylococcus aureus [1] came out at 2 µg/mL (≈ 5.78 µM); in the experiment with Escherichia coli [2], 16 µg/mL (≈ 46.2 µM); in the experiment on Staphylococcus aureus [3], 1 µg/mL; with Escherichia coli [4], 128 µg/mL (≈ 370 µM); in the experiment with Enterococcus faecalis, 2 µg/mL (≈ 5.78 µM); in the experiment with Staphylococcus aureus [5], 1 µg/mL (≈ 2.89 µM). For the same molecule, the MIC with Enterococcus faecium was determined as 2 µg/mL (≈ 5.78 µM). Besides, the values for the median effective dose (ED50) in the experiment with Mus musculus and in the experiment with Staphylococcus aureus [6] were 22.1 mg/kg/day and 22.4 mg/kg/day, respectively.
As for `COC(=O)c1cc(-c2ccc(N3C[C@H](CNC(C)=O)OC3=O)cc2F)no1`, the MIC against Staphylococcus aureus [1] is 8 µg/mL (≈ 21.2 µM); against Escherichia coli [2], 64 µg/mL (≈ 170 µM); with Staphylococcus aureus [3], over 128 µg/mL; against Escherichia coli [4] it was over 128 µg/mL; against Enterococcus faecalis it was 16 µg/mL (≈ 42.4 µM); against Staphylococcus aureus [5], 4 µg/mL (≈ 10.6 µM). The same molecule yielded an MIC against Enterococcus faecium of 8 µg/mL (≈ 21.2 µM).
Consider `CC(=O)NC[C@H]1CN(c2ccc(C3=NOC(c4ccccn4)C3)c(F)c2)C(=O)O1` (stereo partly specified), for which the MIC in the experiment on Staphylococcus aureus [1] is 2 µg/mL (≈ 5.02 µM); against Escherichia coli [2] it was 8 µg/mL (≈ 20.1 µM); with Staphylococcus aureus [3], 4 µg/mL; against Escherichia coli [4] it was over 64 µg/mL; with Enterococcus faecalis, 2 µg/mL (≈ 5.02 µM); in the experiment with Staphylococcus aureus [5], 2 µg/mL (≈ 5.02 µM). The same molecule came in with a minimal inhibitory concentration (MIC) in the experiment on Enterococcus faecium of 2 µg/mL (≈ 5.02 µM). Besides, the values for the ED50 in the experiment on Mus musculus and with Staphylococcus aureus [6] were 31.6 mg/kg/day and 22.8 mg/kg/day, respectively.
In the case of `CCOC(=O)C1CC(c2ccc(N3C[C@H](CNC(C)=O)OC3=O)cc2F)=NO1` (stereo partly specified), the MIC in the experiment on Staphylococcus aureus [1] is 8 µg/mL (≈ 20.3 µM); with Escherichia coli [2], 128 µg/mL (≈ 325 µM); in the experiment with Staphylococcus aureus [3] it was over 128 µg/mL; in the experiment with Escherichia coli [4] it was over 128 µg/mL; against Enterococcus faecalis, 16 µg/mL (≈ 40.7 µM); with Staphylococcus aureus [5] it was 4 µg/mL (≈ 10.2 µM). Besides, the MIC in the experiment with Enterococcus faecium came to 8 µg/mL (≈ 20.3 µM).
As to `CC(=O)NC[C@H]1CN(c2ccc(C3=NOC(C(N)=O)C3)c(F)c2)C(=O)O1` (stereo partly specified), the MIC against Staphylococcus aureus [1] was 2 µg/mL (≈ 5.49 µM); in the experiment on Escherichia coli [2] it was 32 µg/mL (≈ 87.8 µM); in the experiment on Staphylococcus aureus [3], 1 µg/mL; against Escherichia coli [4] it was over 64 µg/mL; in the experiment with Enterococcus faecalis, 4 µg/mL (≈ 11 µM); against Staphylococcus aureus [5], 2 µg/mL (≈ 5.49 µM). The molecule also gave an MIC in the experiment with Enterococcus faecium of 4 µg/mL (≈ 11 µM). Moreover, the values for the ED50 in the experiment with Mus musculus and in the experiment on Staphylococcus aureus [6] were 40 mg/kg/day and 11.8 mg/kg/day, respectively.
As to `CC(=O)NC[C@H]1CN(c2ccc(N3CCOCC3)c(F)c2)C(=O)O1` [LINEZOLID], the 50% effective dose (ED50) in the experiment with Mus musculus amounted to 6.8 mg/kg/day; with Staphylococcus aureus [6] it was 5.4 mg/kg/day. Further, the MIC against Escherichia coli [2] is 16 µg/mL (≈ 47.4 µM); against Escherichia coli [4], over 32 µg/mL; against Enterococcus faecium, 4 µg/mL (≈ 11.9 µM).
